Source: US20220372433A1 (priority 2021, published 2022)

Assays:
[1] = test system: Lactobacillus plantarum HG-23; assay: Antibiotic sensitivity test (microdilution method, MIC); type: cell-based; details: cultured for 48 h
Procedure: The antibiotic resistance of HG-23 was detected by a microdilution method. a series of 2-fold dilutions were performed on antibacterial drugs to be tested (Gentamicin, Kanamycin, Tetracycline, Erythromycin, Clindamycin, Chloramphenicol, Amplicilin, with initial concentrations of 1024 ug/ml, 256 ug/ml, 64 ug/ml, 8 ug/ml, 16 ug/ml, 64 ug/ml, 16 ug/ml) for 12 times, then added into corresponding wells of 96-well plates, and then […] diluted test bacterial solutions were added into the corresponding wells. After being cultured for 48 h, the minimum inhibitory concentration (MIC) well of the antibacterial drug, namely the sensitivity of the test strain, was observed.

Lactobacillus plantarum = test system: Lactobacillus plantarum; design: unit not given here; details: regulatory cut-off for Lactobacillus plantarum; cited from earlier work

In the case of Gentamicin, the “minimum inhibitory concentration (MIC) of antibiotic against HG-23” value [1] is given as 8 µg/mL and the “EFSA specified safety value (Lactobacillus plantarum)” value (Lactobacillus plantarum) is given as 16.
